# Laboratory results published in patent US6420363B1, “Mono- or polyenic carboxylic acid derivatives” (Eisai Co., Ltd., priority 1994, dated 2002).
# Tests used:
# [1] = tested on: HL60 cells; assay: Antagonism against all-trans retinoic acid in inducing the differentiation of HL60 cells (CD11b-positive cells, flow cytometry); assay type: cell-based; settings: Homo sapiens, HL-60, 120 h; CD11b-positive cells induced by 10 nM all-trans retinoic acid, 5 days
# Excerpt: Antagonism Against All-trans Retinoic Acid in Inducing the Differentiation of HL60 Cells
# It is known that human promyelocytic leukemia cells HL60 differentiate into granulocyte-like cells in the presence of all-trans retinoic acid (Breitman, T., Selonick, S., and Collins, S., Proc. Natl. Acad. Sci. U.S.A. 77, 2936(1980)). In general, cells allow specific differentiation antigens to be expressed on the cell surfaces when they have achieved differentiation. When HL60 cells differentiate into granulocyte-like cells, CD11b which is a granulocyte/monocyte discriminating antigen is expressed on the cell surfaces (Fontana, J A., Reppuci, A., Durham, J P., and Mirand, D., Cancer Res. 46, 2469-2473 (1986)). The antagonism of a test compound against the differentiation into granulocyte-like cells induced by all-trans retinoic acid was studied by utilizing this phenomenon.
# HL60 cells were cultured and maintained in a medium prepared by adding 10% of inactivated fetal bovine serum, 1 mM of sodium pyridinecarboxylate, 50 μM of β-mercaptoethanol, 100 IU/ml of penicillin and 100 μg/ml of streptomycin to RPMI1640 (culture medium formulated by Rosewell Park Memorial Institute).
# An HL60 cell suspension (1×10^5 cells/ml) was put in a 48-well plate in an amount of one ml per unit well, followed by the addition of all-trans retinoic acid in a concentration of […] and a retinoid antagonist in various concentrations. The resulting mixtures were cultured in a 5% CO2-air incubator for 5 days. After the completion of the culture, the cells in each well was recovered into a test tube, followed by the addition of an FITC-labeled monoclonal antibody against CD11b (which is a specific antigen against glanulocytes and monocytes). The resulting cell suspension was fixed with 0.2% paraformaldehyde. The fixed cell suspension thus obtained was examined for the content of CD11b-positive cells in the HL60 cell population of each well by flow cytometry (Miller, L. J., Schwarting, R., and Springer, T A., J. Immunol. 137, 2891-2900 (1986)). The compounds which will be described below lowered the content of CD11b-positive cells induced by 10 nM all-trans retinoic acid dependently on the concentration.
# [2] = target: T1, all-trans retinoic acid receptors (RAR) (Homo sapiens, UniProt P10276); assay: Receptor binding assay using nuclear extract fraction of human promyelocytic leukemia cell HL60; settings: inhibition of specific binding of 3H-all-trans retinoic acid, 4° C., 16 hours
# T1 construct: determined by the use of the nuclear extract fraction of HL60; endogenous in cells; host or cells: HL60 human promyelocytic leukemia cells, nuclear extract fraction
# T1 sequence (P10276 1-462): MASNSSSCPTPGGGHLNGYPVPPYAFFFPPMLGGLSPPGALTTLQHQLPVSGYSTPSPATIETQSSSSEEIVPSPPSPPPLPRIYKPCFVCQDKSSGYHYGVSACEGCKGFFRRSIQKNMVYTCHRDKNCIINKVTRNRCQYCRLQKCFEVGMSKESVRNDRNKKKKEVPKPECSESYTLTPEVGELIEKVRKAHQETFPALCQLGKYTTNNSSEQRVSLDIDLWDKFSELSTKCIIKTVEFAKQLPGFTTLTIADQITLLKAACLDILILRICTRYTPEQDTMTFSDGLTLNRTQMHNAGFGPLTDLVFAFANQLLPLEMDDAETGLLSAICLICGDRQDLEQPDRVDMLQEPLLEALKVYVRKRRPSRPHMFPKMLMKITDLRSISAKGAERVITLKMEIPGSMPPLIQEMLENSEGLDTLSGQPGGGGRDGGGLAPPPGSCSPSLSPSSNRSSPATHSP
# Method: Receptor Binding Assay Using Human Promyelocytic Leukemia Cell HL60
# It is known that all-trans retinoic acid receptors (retinoic acid receptor: RAR) are is present in the nuclei of HL60 cells (Clara Nervi et al., Proc. Natl. Acad. Sci. U.S.A. 86, 5854(1989)). Therefore, the specific binding of all-trans retinoic acid for RAR was determined by the use of the nuclear extract fraction of HL60, and each test compound was examined for the ability to bind RAR by determining the inhibition against the specific binding.
# The nuclear extract fraction was prepared as follows.
# HL60 cells (5×10^8) were suspended in 15 ml of solution A (sodium phosphate (pH7.4): 5 mM, monothioglycerol: 10 mM, glycerol: 10% (v/v), phenylmethylsulfonyl fluoride (PMSF): 1 mM, aprotinin: 10 μg/ml, and leupeptin: 25 μg/ml). The obtained suspension was homogenized by the use of a homogenizer and centrifuged to remove the resulting supernatant. The sediment thus formed was suspended in 15 ml of solution B (Tris-HCl(pH8.5): 10 mM, monothioglycerol: 10 mM, glycerol: 10% (v/v), PMSF: 1 mM, aprotinin: 10 μg/ml, leupeptin: 25 μg/ml, and KCl: 0.8 M). The obtained suspension was allowed to stand at 4° C. for one hour, and subjected to ultracentrifugation (100,000×g, 4° C., 1 hr). The obtained supernatant was stored as the nuclear extract fraction in a frozen state at −80° C. until the use (METHODS IN ENZYMOLOGY, 189, 248).
# The receptor binding assay was conducted as follows.
# 180 μl of the above fraction and 10 μl of a dilution of all-trans retinoic acid or a test compound were added to each well of a 96-well plate made of polypropylene, followed by the addition of 10 μl of 10 nM^3H-all-trans retinoic acid. The resulting plate was allowed to stand at 4° C. for 16 hours. A solution containing 3% of charcoal and 0.3% of dextran was added to the resulting reaction mixture. The mixture thus obtained was centrifuged to remove free ^3H-all-trans retinoic acid. The radioactivity of the resulting supernatant was determined by the use of a scintillation counter. The specific binding of ^3H-all-trans retinoic acid for RAR was determined by assuming the radioactivity found when 200 times as much all-trans retinoic acid was added to be the non-specific binding and subtracting it from the radioactivity determined above. The compounds which will be described below inhibited the binding of ^3H-all-trans retinoic acid dependently on the concentration.
IC50 [1],IC50 [2],melting point,Compound
470 nM,17 nM,,"COC(=O)/C=C(C)/C=C/C(F)=C(/C)c1ccc2c(c1)C(C)CCN2C(C)C (stereo not shown) [Example 8, Methyl (E,E,E)-7-[1-(1-methylethyl)-4-methyl-1,2,3,4-tetrahydroquinolin-6-yl]-6-fluoro-3-methyl-octa-2,4,6-trienoate]"
130 nM,13 nM,,"COC(=O)/C=C(C)/C=C/C(F)=C(/C)c1ccc2c(c1)CC(C)CN2C(C)C (stereo not shown) [Example 14, Methyl (E,E,E)-7-[1-(1-methylethyl)-3-methyl-1,2,3,4-tetrahydroquinolin-6-yl]-6-fluoro-3-methyl-octa-2,4,6-trienoate]"
880 nM,> 50 nM,,"CC(/C=C/C(F)=C(/C)c1ccc2c(c1)C(C)CCN2C(C)C)=C\C(=O)O (stereo not shown) [Example 9, (E,E,E)-7-[1-(1-Methylethyl)-4-methyl-1,2,3,4-tetrahydroquinolin-6-yl]-6-fluoro-3-methyl-octa-2,4,6-trienoic acid]"

# Continued, molecule first:
Compound,IC50 [1],IC50 [2],melting point
"CC(/C=C/C(F)=C(/C)c1ccc2c(c1)CCCN2C(C)C)=C\C(=O)O [Example 5, (E,E,E)-7-[1-(1-methylethyl)-1,2,3,4-tetrahydroquinolin-6-yl]-6-fluoro-3-methyl-octa-2,4,6-trienoic acid]",39 nM,5.4 nM,
"CCOC(=O)/C(F)=C(/C)c1ccc2c(c1)CC(C)CN2C(C)C (stereo not shown) [Example 13, Ethyl (E)-3-[1-(1-methylethyl)-3-methyl-1,2,3,4-tetrahydroquinolin-6-yl]-2-fluoro-2-butenoate]",29 nM,12.5 nM,
"CC(/C=C/C(C)=C/c1ccc2c(c1)CCCN2C(C)C)=C\C(=O)O [Example 4, (E,E,E)-7-[1-(1-methylethyl)-1,2,3,4-tetrahydroquinolin-6-yl]-3,6-dimethyl-hepta-2,4,6-trienoic acid]",74 nM,20 nM,
CC1(C)CCC(C)(C)c2c1sc1c2-c2c(c(-c3ccc(C(=O)O)cc3)cn2Cc2cccnc2)CC1 [Example 210],,,289 to 290 °C
